# From US9340575B2, “Agonists and antagonists of the urotensinergic system” (INSTITUT NATIONAL DE LA RECHERCHE SCIENTIFIQUE, priority 2011, dated 2016)
# Tested on: anaesthetized rats
# Experiment: Hemodynamic assessment (arterial blood pressure) in anaesthetized rats
# Assay type: in vivo, rat
# Conditions: for Intrinsic effect on blood pressure: anaesthetized rats
# Experimental: Male Sprague-Dawley rats, weighing 350-400 g, were anaesthetized by isoflurane inhalation delivered in 100% oxygen (1 l/min) from an Ohmeda Tec 4 anaesthetic vaporizer (Somatechnology, Inc., Bloomfield, Conn., USA). Anaesthesia was maintained by mask inhalation of isoflurane vaporized at concentrations of up to 3% in the induction phase, at 1.5% during acute surgical procedures and at 0.8-1.0% during experimental observations. […]. […] A period of stabilisation of 30 min was observed and the following experimental protocols were then performed and arterial blood pressure was evaluated. During isoflurane inhalation, no breathing complications or changes in blood pressure were observed. […].
# In a preliminary study, individual rats received a single i.v. injection of hUII ranging from 1 to 30 nmol/kg. A dose-response curve, reflecting the effect of hUII on the change in blood pressure, was then determined.
# In this set of experiments, five groups of rats were used. […] […]. Hemodynamic changes were continuously captured by the pressure probe over a period of 1 h. The maximum rise and the maximum drop in blood pressure was determined and analyzed using the PowerLab software (ADInstruments, Colorado Springs, Colo., USA).
# In the control group, the rats received two doses of hUII (10 nmol/kg) with a 30 min interval between the first and second injection.
# [1] = 1000 nmol/kg bolus, 30 min before hUII 10 nmol/kg
smiles,measurement,setting,value
"CC(C)[C@H](NC(=O)[C@@H]1CSSC[C@H](NC(=O)[C@H](C)N)C(=O)N[C@@H](Cc2ccccc2)C(=O)N[C@@H](Cc2ccc(-c3ccccc3)cc2)C(=O)N[C@@H](CCCCN)C(=O)N[C@@H](Cc2ccc(O)cc2)C(=O)N1)C(=O)O [[Bip^4]URP, H-Ala-Cys-Phe-Bip-Lys-Tyr-Cys-Val-OH]",Effect on hUII hemodynamic profile,0.1 μmol/kg,no effect
same,Intrinsic effect on blood pressure,100 nmol/kg (0.1 μmol/kg) i.v.,No effect
same,Intrinsic effect on blood pressure,"100 nmol/kg (0.1 μmol/kg) i.v., listed as urocontrin",no detectable effect
same,Intrinsic effect on blood pressure,1000 nmol/kg (1 μmol/kg) i.v.,hypotensive effect comparable with that of hUII
same,Intrinsic effect on blood pressure,"1000 nmol/kg (1 μmol/kg) i.v., listed as urocontrin",hypotension comparable with that of hUII
same,Effect on hUII hypotensive action,[1],significantly reduced
same,Effect on hUII pressor effect,[1],keeping intact
same,Effect on hUII pressor effect,"1000 nmol/kg bolus, 30 min before hUII 10 nmol/kg, listed as urocontrin",preserving
same,Effect on biphasic response induced by URP,"1000 nmol/kg, URP 10 nmol/kg",no effect
same,Response to a second hUII injection after pre-treatment,"[Bip^4]URP 1000 nmol/kg 30 min before two hUII doses (10 nmol/kg, 30 min interval)",complete absence of a response
